Results reported in the NIST ThermoML archive (doi:10.1016/j.jct.2008.04.010).
“And” between values parts separate entries of the source, which are not always exact repeats. Equal values may be shown once.

What was measured:
[1] = molar enthalpy of vaporization or sublimation; details: 298.15 K; Liquid; Calvet microcalorimetry
[2] = for vapor or sublimation pressure: Calculated from knudsen effusion weight loss; for Normal melting temperature: DTA
[3] = Molar enthalpy of transition or fusion; details: Crystal; DSC

c1ccc(-c2cccc3ccccc23)cc1 [1-phenylnaphthalene]
Details	molar enthalpy [kcal/mol]
[1]	19.4

c1ccc(-c2cccc(-c3ccc4ccccc4c3)c2)cc1 [2-(biphen-3-yl)naphthalene]
[2], Liquid
Details	vapor or sublimation pressure
381.08 K	8.1e-05 kPa and 8.3e-05 kPa
385.17 K	0.000117 kPa
389.15 K	0.000174 kPa
389.17 K	0.000177 kPa
393.18 K	0.000216 kPa and 0.000218 kPa and 0.000223 kPa
397.15 K	0.000323 kPa and 0.000303 kPa
397.17 K	0.000315 kPa
401.14 K	0.00041 kPa and 0.000429 kPa and 0.000427 kPa
405.18 K	0.000546 kPa and 0.000585 kPa and 0.000588 kPa
409.08 K	0.000767 kPa and 0.000773 kPa and 0.00079 kPa
413.17 K	0.001087 kPa and 0.001156 kPa

Details	Normal melting temperature [°C]
[2], Crystal	73.2

Details	Molar enthalpy of transition or fusion [kcal/mol]
[3]	4.42

c1ccc(-c2ccc(-c3ccc4ccccc4c3)cc2)cc1 [2-(biphen-4-yl)naphthalene]
[2], Crystal
Details	vapor or sublimation pressure
405.17 K	6.2e-05 kPa and 6.3e-05 kPa
409.14 K	9.1e-05 kPa and 8.8e-05 kPa and 8.9e-05 kPa
411.18 K	0.000111 kPa and 0.000112 kPa
413.18 K	0.000131 kPa and 0.000135 kPa and 0.000134 kPa
415.14 K	0.000164 kPa and 0.00016 kPa and 0.000161 kPa
417.19 K	0.000197 kPa
419.09 K	0.000237 kPa and 0.000235 kPa and 0.00023 kPa
421.14 K	0.000283 kPa and 0.00028 kPa
423.09 K	0.000339 kPa and 0.000342 kPa and 0.000336 kPa
425.19 K	0.000418 kPa and 0.000424 kPa and 0.000416 kPa
429.21 K	0.000609 kPa and 0.000597 kPa
433.15 K	0.000855 kPa and 0.000839 kPa
437.19 K	0.001171 kPa and 0.001222 kPa and 0.001194 kPa

Details	Normal melting temperature [°C]
[2], Crystal	216.4

Details	Molar enthalpy of transition or fusion [kcal/mol]
[3]	6

c1ccc(-c2ccc3ccccc3c2)cc1 [2-phenylnaphthalene]
[2], Crystal
Details	vapor or sublimation pressure
333.11 K	0.000132 kPa and 0.000137 kPa
335.63 K	0.000185 kPa and 0.000183 kPa and 0.00018 kPa
338.2 K	0.000244 kPa and 0.000239 kPa
340.61 K	0.00032 kPa and 0.000316 kPa and 0.000318 kPa
343.13 K	0.00042 kPa and 0.000421 kPa and 0.000419 kPa
345.69 K	0.000558 kPa and 0.000553 kPa and 0.000544 kPa
348.12 K	0.000729 kPa and 0.000707 kPa and 0.000716 kPa
350.62 K	0.000939 kPa and 0.000941 kPa and 0.000909 kPa
353.19 K	0.001212 kPa and 0.001224 kPa and 0.001185 kPa

Details	Normal melting temperature [°C]
[2], Crystal	100.4

Details	Molar enthalpy of transition or fusion [kcal/mol]
[3]	4.28
